# Assay results reported in patent US11434237B2, “Selective ligands for tau aggregates” (KARIN & STEN MORTSTEDT CBD SOLUTIONS AB, priority 2017, dated 2022).
# How the values were obtained:
# tau aggregates [1] = molecular target: T1, tau aggregates (Homo sapiens, UniProt P10636); experiment: Compound and antibody AT100 double staining of AD brain tissue sections; assay type: binding; conditions: for Labelling of immune-positive NFTs and dystrophic neurites / Fluorescence from tested compound observed / Overlap between Fluorescence from tested compound and fluorescence from AT-100 observed: 100 nM compound; for Labelling of immune-positive NFTs and dystrophic neurites: AT100 co-staining, AD brain sections; for Fluorescence from tested compound observed / Overlap between Fluorescence from tested compound and fluorescence from AT-100 observed: human AD brain tissue sections; for Fluorescence from tested compound observed: double staining with tau antibody AT-100; for Overlap between Fluorescence from tested compound and fluorescence from AT-100 observed: tau antibody AT-100; for Fluorescence from AT-100 observed: signal of tau antibody AT-100 in the section stained with 100 nM of the compound
# T1 construct: tissue sections (20 μm) from human AD brain; from tissue; host or cells: human AD brain tissue sections (20 μm)
# T1 sequence (P10636 1-441 isoform P10636-8): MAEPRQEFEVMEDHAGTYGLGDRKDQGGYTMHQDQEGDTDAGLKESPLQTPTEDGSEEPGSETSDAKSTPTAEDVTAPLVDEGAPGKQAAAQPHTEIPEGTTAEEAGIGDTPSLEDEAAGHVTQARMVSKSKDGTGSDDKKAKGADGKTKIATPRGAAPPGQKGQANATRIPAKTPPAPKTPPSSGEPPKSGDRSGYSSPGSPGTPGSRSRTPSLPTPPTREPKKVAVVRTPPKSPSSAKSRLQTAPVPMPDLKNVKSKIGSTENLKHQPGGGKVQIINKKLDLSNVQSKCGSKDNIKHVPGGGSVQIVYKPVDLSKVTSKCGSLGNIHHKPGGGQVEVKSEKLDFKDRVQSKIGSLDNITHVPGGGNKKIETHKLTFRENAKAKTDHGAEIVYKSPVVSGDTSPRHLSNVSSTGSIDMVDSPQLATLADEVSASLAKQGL
# Description: (§1) To achieve compound and antibody double staining of Aβ or tau aggregates, tissue sections (20 μm) from human AD brain were fixed in 70% EtOH at 4° C. for 3 min, rehydrated in distilled water and then incubated in PBS for 30 min. Sections were blocked and permeabilized in PBS with 5% normal goat serum and 0.1% triton X-100 (blocking buffer) for 1 h at room temperature (RT). Antibody 4G8 (Biolegend, San Diego, Calif., USA) reactive to Aβ, and AT100 (Thermo Fisher Scientific, Waltham, Mass., USA) directed against tau phosphorylated at […] (3) were diluted 1:500 and 1:1000, respectively, in blocking buffer and added to the sections. After 16 h incubation at 4° C. unbound antibody was removed by washing in PBS with 0.1% triton X-100 (PBS-T) 3×10 min. To visualize antibody binding to Aβ or tau aggregates sections were incubated with goat anti-mouse secondary antibody labelled with Alexa 647 (Thermo Fisher Scientific). The antibody was diluted 1:200 in blocking buffer and after 1 h incubation at RT sections were washed in PBS 3×10 min. Example Compound 3a, Example Compound 3b, Example Compound 3c, Example Compound 3d, Example Compound 3e, Example Compound 3f, Example Compound 3g, Example Compound 3h, Example Compound 3i, Example Compound 3j, Example Compound 3k, Example Compound 3m, Example Compound 3n, Example Compound 3o, Example Compound 3p, Example Compound 3q, Example Compound 3r, Example Compound 3s, Example Compound 3t, Example Compound 3u, Example Compound 8a, Comparative Example 1, Comparative Example 2, Comparative Example 3 and Comparative Example 4 were dissolved in DMSO to a concentration of 1.5 mM and then further diluted in PBS to a final concentration of 100 nM compound prior to staining. The tissue sections were then stained for 30 min at RT with these freshly prepared solutions containing 100 nM of the respective compound in PBS. After three washes in PBS the sections were mounted in Dako mounting medium for fluorescence (Dako Cytomation, Glostrup, Denmark) and allowed to dry overnight before analysis. Fluorescence images were collected using an inverted LSM 780 confocal microscope (Carl Zeiss, Oberkochen, Germany) with the following excitation/emission wavelengths optimized for each compound: 458/484-600 (Comparative Example 1, Comparative Example 3), 561/569-648 (Example Compound 3a, Example Compound 3b, Example Compound 3c, Example Compound 3d, Example Compound 3e, Example Compound 3f, Example Compound 3g, Example Compound 3h, Example Compound 3i, Example Compound 3j, Example Compound 3k, Example Compound 3m, Example Compound 3n, Example Compound 3o, Example Compound 3p, Example Compound 3q, Example Compound 3r, Example Compound 3s, Example Compound 3t, Example Compound 3u, Example Compound 8a, Comparative Example 2 and Comparative Example 4) and 633/638-755 (Alexa 647). To visualize autofluorescent lipofuscin excitation/emission wavelengths 405/410-480 or 405/410-514 were used.
# Aβ and tau deposits [2] = experiment: Co-staining of AD brain sections with PBB3 and Example Compound 3b; assay type: binding, human; conditions: simultaneous 100 nM PBB3 and 100 nM Example Compound 3b
# Description: Frozen brain sections (20 μm) were fixed in 96% EtOH, rehydrated in 50% EtOH and de-ionized water and then incubated in phosphate buffered saline (PBS, 10 mM phosphate, 140 mM NaCl, 2.7 mM KCl, pH 7.4) for 10 min. Solutions containing 100 nM PBB3 and 100 nM Example Compound 3b or 100 nM q-FTAA-CN and 100 nM Example Compound 3a in PBS were added to the sections. After 30 min, the sections were washed with PBS and mounted with Dako fluorescent mounting medium (Dako Cytomation, Glostrup, Denmark). The mounting medium was allowed to solidify over night before collecting emission spectra of the compounds bound to misfolded A ? and tau using an inverted LSM 780 confocal microscope (Carl Zeiss, Oberkochen, Germany) with excitation wavelengths at 405 nm (PBB3 and q-FTAA-CN) and 561 nm (Example Compound 3a and Example Compound 3b).
# tau aggregates [3] = molecular target: T1, tau aggregates; experiment: Example Compound 3b staining of AD brain sections pre-incubated with PBB3 or PBS; assay type: binding
# Description: (§2) Frozen brain sections (20 μm) were fixed in 96% EtOH, rehydrated in 50% EtOH and de-ionized water and then incubated in phosphate buffered saline (PBS, 10 mM phosphate, 140 mM NaCl, 2.7 mM KCl, pH 7.4) for 10 min. The sections were stained with solutions containing 1 ? M PBB3 or 1 ? M q-FTAA-CN in PBS for 30 min and after rinsing three times with PBS, the sections was stained with a solution containing 10 nM Example Compound 3b. After 30 min, the sections were washed with PBS and mounted with Dako fluorescent mounting medium (Dako Cytomation, Glostrup, Denmark). The mounting medium was allowed to solidify over night before collecting emission spectra of the compounds bound to misfolded Aβ and tau using an inverted LSM 780 confocal microscope (Carl Zeiss, Oberkochen, Germany) with excitation wavelengths at 405 nm (PBB3 and q-FTAA-CN) and 561 nm (Example Compound 3b).
# tau aggregates [4] = molecular target: T1, tau aggregates; experiment: Example Compound 3b staining of AD brain sections pre-incubated with q-FTAA-CN; assay type: binding; conditions: FIG. 7H, pre-incubated with 1 μM q-FTAA-CN, then 10 nM Example Compound 3b
# Description: as §2
# Aβ aggregates = molecular target: T2, Aβ aggregates (Homo sapiens, UniProt P05067); experiment: Compound and antibody 4G8 double staining of AD brain tissue sections; assay type: binding; conditions: for Overlap between Fluorescence from tested compound and fluorescence from 4G8 observed / Fluorescence from tested compound observed: 100 nM compound, human AD brain tissue sections; for Overlap between Fluorescence from tested compound and fluorescence from 4G8 observed: Aβ antibody 4G8; for Fluorescence from tested compound observed: double staining with Aβ antibody 4G8; for Fluorescence from 4G8 observed: signal of Aβ antibody 4G8 in the section stained with 100 nM of the compound
# T2 construct: compound and antibody double staining of Aβ or tau aggregates; from tissue; host or cells: human AD brain tissue sections (20 μm)
# T2 sequence (P05067 672-713 limits assumed): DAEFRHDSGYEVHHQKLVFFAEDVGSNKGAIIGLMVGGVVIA
# Description: as §1
# [5] = Excitation and emission spectra of compounds in DMSO or PBS; assay type: physicochemical; conditions: 300 nM in DMSO or PBS pH 7.4
# Description: Stock solutions of Example Compound 3a, Example Compound 3b, Example Compound 3c, Example Compound 3d and Example Compound 8a (1.5 mM in DMSO) were diluted to 300 nM in phosphate buffered saline (PBS, 10 mM phosphate, 140 mM NaCl, 2.7 mM KCl, pH 7.4) or DMSO. Excitation and emission spectra of the compounds were collected using an Infinite M1000 Pro microplate reader (Tecan, Männedorf, Switzerland).
# Aβ and tau deposits [6] = experiment: Staining of AD brain sections with PBB3 alone; assay type: binding, human; conditions: 100 nM PBB3 alone in PBS pH 7.4, FIG. 6A
# Description: as §2, with “100 nM” for “1 ? M”, “PBB3” for “PBB3 or 1 ? M q-FTAA-CN”, “with” for “with PBS, the sections was stained with a solution containing 10 nM Example Compound 3b. After 30 min, the sections were washed with”, “PBS” for “PBS and”, “compound” for “compounds”, “(PBB3).” for “(PBB3 and q-FTAA-CN) and 561 nm (Example Compound 3b).”
# [7] = FIG. 7F, pre-incubated with 1 μM PBB3, then 10 nM Example Compound 3b
Fluorescence from tested compound observed (tau aggregates [1]),Overlap between Fluorescence from tested compound and fluorescence from AT-100 observed (tau aggregates [1]),Fluorescence from AT-100 observed (tau aggregates [1]),Overlap between Fluorescence from Example Compound 3b and fluorescence from q-FTAA-CN (tau aggregates [4]),Overlap between Fluorescence from tested compound and fluorescence from 4G8 observed (Aβ aggregates),Fluorescence from tested compound observed (Aβ aggregates),Fluorescence from 4G8 observed (Aβ aggregates),Structure (SMILES),Labelling of immune-positive NFTs and dystrophic neurites (tau aggregates [1]),Fluorescence from Example Compound 3b observed (Aβ and tau deposits [2]; FIG. 7E),Overlap between Fluorescence from Example Compound 3b and fluorescence from PBB3 (Aβ and tau deposits [2]; FIG. 7E),Deposits labelled (Aβ and tau deposits [2]),Selectivity and affinity for tau deposits compared with PBB3 (Aβ and tau deposits [2]),Fluorescence from Example Compound 3b observed (tau aggregates [3]; [7]),"Fluorescence from Example Compound 3b observed (tau aggregates [3]; FIG. 7G, pre-incubated in PBS only, 10 nM Example Compound 3b)",Fluorescence from Example Compound 3b observed (tau aggregates [4]),Excitation and emission spectra when switching solvent from DMSO to PBS [5],Fluorescence from PBB3 observed (Aβ and tau deposits [2]; FIG. 7E),Fluorescence from PBB3 observed (tau aggregates [3]; [7]),Deposits labelled (Aβ and tau deposits [6])
yes,yes,yes,yes,no correlation and no,yes,yes,CC[n+]1c(/C=C/c2ccc(-c3ccc(I)s3)s2)sc2ccccc21 [Example Compound 3b],labelled both immune-positive NFTs and dystrophic neurites,yes,no,"tau deposits, NFTs and dystrophic neurites, displayed characteristic emission",higher selectivity and most likely a higher affinity for tau deposits than PBB3,no observable Example Compound 3b fluorescence and no,fluorescence was observed from the tau aggregates and yes,observed from the tau aggregates and could easily be observed from the q-FTAA-CN positive NFTs as well as from q-FTAA-CN negative dystrophic neurites and yes,,,,
yes,yes,yes,,no correlation and no,yes,yes,COC(=O)c1ccc(-c2ccc(/C=C/c3nc4ccccc4s3)s2)s1 [Example Compound 8a],labelled both immune-positive NFTs and dystrophic neurites,,,,,,,,"solvatochromatic behavior rendering a blue-shifted excitation spectrum, as well as a red-shifted emission spectrum",,,
,,,,,,,"CNc1ccc(/C=C/C=C/c2nc3ccc(O)cc3s2)cn1 [PBB3, reference compound]",,,,Aβ deposits were visualized by the fluorescence from PBB3,,,,,,yes,both the Aβ and tau deposits exhibited strong PBB3 fluorescence and yes,labelled both Aβ and tau deposits
